Laboratory results reported in ChEMBL document CHEMBL4130507, “Therapeutic investigations of novel indoxyl-based indolines: A drug target validation and Structure-Activity Relationship of angiotensin-converting enzyme inhibitors with cardiovascular regulation and thrombolytic potential” (Eur J Med Chem, 2017).
The source made the active and inactive calls. The rule behind the calls is not given here.

Key:
[1] = system: DNA; assay: Inhibition of H2O2-induced Escherichia coli DH5alpha genomic DNA damage at 25 to 250 uL after 24 hrs by ethidium-bromide staining-based agarose gel electrophoresis; type: nucleic-acid assay; conditions: Escherichia coli DH5[alpha]
[2] = system: MCF10; assay: Cytotoxicity against human MCF10 cells at 10 to 150 ug/ml after 24 to 72 hrs by MTT assay; type: cell-based
[3] = molecular target: T1, Angiotensin-converting enzyme (Homo sapiens, UniProt P12821); assay: Inhibition of ACE (unknown origin) using Hippuryl-L-Histidyl-L-Leucine as substrate after 60 mins by colorimetric method
T1 sequence (P12821 whole entry): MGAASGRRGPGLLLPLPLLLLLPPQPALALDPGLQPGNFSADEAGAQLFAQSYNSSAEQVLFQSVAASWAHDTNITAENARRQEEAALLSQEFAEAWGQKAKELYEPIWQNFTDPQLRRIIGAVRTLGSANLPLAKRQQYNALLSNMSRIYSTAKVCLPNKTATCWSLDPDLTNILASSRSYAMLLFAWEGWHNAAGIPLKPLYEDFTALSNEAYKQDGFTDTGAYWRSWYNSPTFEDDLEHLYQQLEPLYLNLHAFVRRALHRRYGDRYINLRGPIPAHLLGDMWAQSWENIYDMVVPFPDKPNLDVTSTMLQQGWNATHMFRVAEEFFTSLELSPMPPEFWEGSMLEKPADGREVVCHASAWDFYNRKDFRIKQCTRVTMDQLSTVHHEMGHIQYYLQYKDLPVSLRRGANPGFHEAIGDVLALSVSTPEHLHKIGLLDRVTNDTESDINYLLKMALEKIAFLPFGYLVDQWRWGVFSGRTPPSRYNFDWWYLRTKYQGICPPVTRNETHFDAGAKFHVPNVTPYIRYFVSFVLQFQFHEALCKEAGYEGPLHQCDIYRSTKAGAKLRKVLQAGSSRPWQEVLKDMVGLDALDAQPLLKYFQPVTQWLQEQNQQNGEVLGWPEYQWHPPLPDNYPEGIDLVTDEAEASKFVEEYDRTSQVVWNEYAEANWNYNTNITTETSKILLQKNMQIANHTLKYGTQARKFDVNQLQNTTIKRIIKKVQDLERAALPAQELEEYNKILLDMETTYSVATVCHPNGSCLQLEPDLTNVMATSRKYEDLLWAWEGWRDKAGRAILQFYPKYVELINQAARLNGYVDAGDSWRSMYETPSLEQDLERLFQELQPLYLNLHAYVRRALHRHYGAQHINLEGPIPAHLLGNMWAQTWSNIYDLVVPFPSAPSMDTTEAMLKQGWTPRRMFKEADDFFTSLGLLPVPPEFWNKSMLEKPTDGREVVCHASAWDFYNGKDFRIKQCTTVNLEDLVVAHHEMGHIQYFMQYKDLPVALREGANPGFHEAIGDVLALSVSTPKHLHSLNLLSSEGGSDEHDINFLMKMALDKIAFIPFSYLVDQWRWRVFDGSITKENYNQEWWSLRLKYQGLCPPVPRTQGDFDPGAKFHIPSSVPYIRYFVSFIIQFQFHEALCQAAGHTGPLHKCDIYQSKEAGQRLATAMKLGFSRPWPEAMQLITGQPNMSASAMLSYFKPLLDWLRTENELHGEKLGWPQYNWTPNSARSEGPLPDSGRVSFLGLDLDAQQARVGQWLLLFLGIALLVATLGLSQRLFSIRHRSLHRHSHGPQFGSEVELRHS

[4] = system: MCF7; assay: Cytotoxicity against human MCF7 cells at IC50 after 24 to 72 hrs by MTT assay relative to control; type: functional
[5] = system: Blood; assay: Thrombolytic activity in human blood after 60 mins; type: functional, tissue-based
[6] = system: MCF7; assay: Cytotoxicity against human MCF7 cells after 24 to 72 hrs by MTT assay; type: functional, cell-based
[7] = Antioxidant activity assessed as H2O2 free radical scavenging activity after 1 hr by UV spectrophotometric analysis; type: functional
[8] = Antioxidant activity assessed as H2O2 free radical scavenging activity at IC50 after 1 hr by UV spectrophotometric analysis relative to control; type: functional
[9] = system: Blood; assay: Thrombolytic activity in human blood after 2 hrs relative to control; type: functional
[10] = molecular target: T1, Angiotensin-converting enzyme; assay: Inhibition of ACE (unknown origin) at IC50 using Hippuryl-L-Histidyl-L-Leucine as substrate after 60 mins by colorimetric method relative to control
[11] = system: Erythrocyte; assay: Induction of membrane stabilization in human RBC assessed as reduction in hemolysis relative to control; type: functional; parameters: scale not given: the % may be the effect or the level left
[12] = system: Blood; assay: Thrombolytic activity in human blood after 2 hrs; type: functional, tissue-based

With `O=C1/C(=N\C(=S)NCc2cc3ccccc3cc2O)c2ccccc2N1CCBr` the inhibition [1] was “Active”, the Activity [2] was “Non-Toxic” and the IC50 [3] was 4.11 nM. For the same compound, the Activity [4] was 82.94%, the Activity [5] was “Active” and the IC50 [6] was 92 nM. The Activity [7] was “Dose-dependent effect”, the Activity [8] was 92.5% and the Activity [9] was 83.5%. The inhibition [10] was 90.5%.

In the case of `CC(=O)N1C(=O)/C(=N\C(=S)NCc2cc3ccccc3cc2O)c2ccccc21`, the inhibition [1] is reported as “Active”, the IC50 [3] is reported as 10.7 nM and the Activity [7] is reported as “Dose-dependent effect”. For the same compound, the Activity [8] was 81.2% and the inhibition [10] was 82.7%.

`COc1cccc2c1C(=O)c1c(O)c3c(c(O)c1C2=O)C[C@@](O)(C(=O)CO)C[C@@H]3O[C@H]1C[C@H](N)[C@H](O)[C@H](C)O1` [DOXORUBICIN] gave an Activity [4] of 78.42%.

For `COc1ccc(N2C(=O)/C(=N/C(=S)NCc3cc4ccccc4cc3O)c3ccccc32)cc1`, the IC50 [3] was 9.82 nM, the Activity [7] was “Dose-dependent effect” and the Activity [8] was 79.4%. For the same compound, the inhibition [10] was 86.4%.

`NCCCC[C@H](N[C@@H](CCc1ccccc1)C(=O)O)C(=O)N1CCC[C@H]1C(=O)O` showed an inhibition [10] of 89.1%.

In the case of `O=C1/C(=N\C(=S)NCc2cc3ccccc3cc2O)c2ccccc2N1C(=O)c1ccccc1`, the inhibition [1] is reported as “Active”, the Activity [2] is reported as “Non-Toxic” and the IC50 [3] is reported as 8.84 nM. For the same compound, the Activity [4] was 78.12%, the IC50 [6] was 102 nM and the Activity [7] was “Dose-dependent effect”. For the same compound, the Activity [8] was 89.5%, the Activity [9] was 83.5% and the inhibition [10] was 87.3%.

In the case of `COc1ccc(CN2C(=O)/C(=N\C(=S)NCc3cc4ccccc4cc3O)c3ccccc32)cc1`, the inhibition [1] is reported as “Active”, the IC50 [3] is reported as 7.64 nM and the Activity [7] is reported as “Dose-dependent effect”. The Activity [8] was 78%, the Activity [9] was 83.5% and the inhibition [10] was 88.5%.

In the case of `O=C1/C(=N\C(=S)NCc2cc3ccccc3cc2O)c2ccccc2N1c1ccccc1Cl`, the IC50 [3] is reported as 15.1 nM, the Activity [7] is reported as “Dose-dependent effect” and the Activity [8] is reported as 82.7%. It also gave an inhibition [10] of 76.5%.

`O=C1O[C@H]([C@@H](O)CO)C(O)=C1O` showed an Activity [8] of 90.1%.

With `Cc1ccc(C(=O)N2C(=O)/C(=N\C(=S)NCc3cc4ccccc4cc3O)c3ccccc32)cc1` the IC50 [3] was 24.2 nM, the Activity [7] was “Dose-dependent effect” and the Activity [8] was 83.1%. The inhibition [10] was 65%.

With `O=C1/C(=N\C(=S)NCc2cc3ccccc3cc2O)c2ccccc2N1c1ccccc1` the IC50 [3] was 19 nM, the Activity [7] was “Dose-dependent effect” and the Activity [8] was 80.8%. It also gave an inhibition [10] of 69.2%.

For `CN1C(=O)/C(=N\C(=S)NCc2cc3ccccc3cc2O)c2ccccc21`, the inhibition [1] was “inactive”, the IC50 [3] was 22.3 nM and the Activity [7] was “Dose-dependent effect”. The Activity [8] was 74.1% and the inhibition [10] was 66.5%.

In the case of `CCCN1C(=O)/C(=N\C(=S)NCc2cc3ccccc3cc2O)c2ccccc21`, the IC50 [3] is reported as 11.8 nM, the Activity [7] is reported as “Dose-dependent effect” and the Activity [8] is reported as 75.1%. It also gave an inhibition [10] of 80.7%.

For `CC(=O)CN1C(=O)/C(=N\C(=S)NCc2cc3ccccc3cc2O)c2ccccc21`, the IC50 [3] was 112 nM, the Activity [7] was “Dose-dependent effect” and the Activity [8] was 68.5%. It also gave an inhibition [10] of 24%.

In the case of `O=C(O)CN1C(=O)/C(=N\C(=S)NCc2cc3ccccc3cc2O)c2ccccc21`, the Activity [11] is reported as 96%, the inhibition [1] is reported as “Active” and the Activity [2] is reported as “Non-Toxic”. For the same compound, the IC50 [3] was 2.85 nM, the IC50 [12] was 35 nM and the Activity [4] was 89.02%. The Activity [5] was “Active”, the IC50 [6] was 82 nM and the Activity [7] was “Dose-dependent effect”. It also gave an Activity [8] of 98.1%, an Activity [9] of 83.5% and an inhibition [10] of 96.1%.
